Measured values as given in PMC4764904 (Scientific Reports, 2016).
Marks after values point to notes of the source that are not given here. Where a SMILES comes first, the peptide text is derived from it. [ ]: non-standard residue; d: D form. The star is where a group is joined. Fmoc = O=C(OCC1c2ccccc2-c2ccccc21)*

Legend:
[1] = target: T1, human GALR2 (Homo sapiens, UniProt O43603); assay: SRE-luc reporter assay, GALR2;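 further: luciferase activity read in cell lysates after exposure to rising peptide concentrations, EC50 being the agonist level giving half-maximal stimulation from a sigmoidal nonlinear regression fit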; format: cell-based; settings: HEK293-Gqi cells transfected with SRE-luc and human GALR2; 6 h ligand treatment; mean ± S.E. of at least three independent experiments; NM = not measurable; read-out: GALR2 EC50
T1 construct: host or cells: HEK293 cells stably expressing Gαqi
T1 sequence (O43603 1-387): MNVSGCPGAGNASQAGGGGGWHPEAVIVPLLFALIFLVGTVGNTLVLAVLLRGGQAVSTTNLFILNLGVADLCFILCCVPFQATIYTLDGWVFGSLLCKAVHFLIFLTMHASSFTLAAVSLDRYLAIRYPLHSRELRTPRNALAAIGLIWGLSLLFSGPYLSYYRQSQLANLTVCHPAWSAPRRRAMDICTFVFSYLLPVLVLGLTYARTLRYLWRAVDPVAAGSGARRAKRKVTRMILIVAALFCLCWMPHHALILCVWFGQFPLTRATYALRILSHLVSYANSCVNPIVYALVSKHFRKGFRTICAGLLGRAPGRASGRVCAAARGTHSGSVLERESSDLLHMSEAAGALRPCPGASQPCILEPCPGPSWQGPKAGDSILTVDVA
Procedure: (§4) The generated mutant SPX peptides were incubated with cells expressing GALR2 and GALR3. […] The activities of the receptors were traced using the serum-response element-driven luciferase (SRE-luc) assay system.
(§5) The SRE-luc reporter vector and plasmid containing human GALR1, GALR2, or GALR3 were transfected into HEK293 cells that stably expressed Gqi protein. Cells were then treated with increasing concentrations of mutant peptides, and the receptor activities were determined using the SRE-luc reporter system.
(§6) HEK293 cells stably expressing Gαqi, which mediates Gαi-coupled receptor activation by stimulating Gαq-dependent signaling pathways[59], were maintained in Dulbecco’s modified Eagle’s medium (DMEM) supplemented with 10% FBS, 100 U/ml penicillin G, and 100 μg/ml streptomycin (Invitrogen). Cells were seeded in 48-well plates at a density of 2 × 10^4 cells per well, one day before transfection. A mixture containing 75 ng of the SRE-luc reporter construct, 75 ng of expression plasmid, and 2 μl of Effectene reagent (Qiagen, Chatsworth, CA, USA) was prepared and added to each well according to the manufacturer’s instructions. Cells were then maintained in serum-free DMEM for 16–18 h before treatment with the ligands. Approximately 48 h after transfection, cells were treated with the respective ligands for 6 h. Cells were lysed by the addition of 100 μl lysis buffer. The luciferase activity in 50 μl of cell extract was determined by a luciferase assay system according to the standard protocol for the Synergy 2 Multi-Mode Microplate Reader (BioTek, Winooski, VT, USA).
(§7) For in vitro studies data analysis was performed by nonlinear regression with a sigmoidal dose-response. The agonist concentrations that induced half-maximal stimulation (EC50) or half-maximal inhibition of binding (IC50) were calculated with GraphPad PRISM4 software (GraphPad Software Inc., San Diego, CA, USA). […] All data are presented as mean ± S.E. of at least three independent experiments and a P value of P < 0.05 was considered statistically significant.

[2] = Peptide stability in FBS by residual IP3 production; format: in vitro ADME, bovine; settings: for Half-life activity (h) in FBS: peptide 1 μM in 100% FBS, 37 °C, 0, 3, 6, 12, 24, 48, 72 h, residual activity read as IP3 production ([3H]-inositol) in HEK293 cells expressing GALR2, mean ± S.E., at least three independent experiments
Procedure: (§1) To investigate the effects of the modifications on proteolytic susceptibility, the functional activity of peptides that were incubated in 100% serum at 37 °C for 0, 3, 6, 12, 24, 48, and 72 h was determined via inositol 1,4,5-triphosphate (IP3) production in GALR2-expressing cells (Fig. 4A–C and Table 3). […] In addition, dAla4 and dGln14 substitutions contribute to longer longevity of the peptide in serum. In an additional experiment, we examined the degradation rates of the Qu mutant, as well as the Qu mutant with an N-terminal modification and/or dAla4 and dGln14 substitutions.
(§2) Figure 4 Stability of SPX mutants in the presence of FBS (A) Qu analogs in FBS (B) and human serum (C). Potency of Qu mutants toward GALR2 (D) and GALR3 (E). For stability of SPX mutants, peptides (1 μM) were incubated in serum for 0, 3, 6, 12, 24, 48, and 72 hrs. The remaining activities of the peptides were determined by measuring IP3 production by HEK293 cells that express GALR2 after the indicated times. IP3 production was expressed as percent change, where 100% indicates IP3 production by WT SPX incubated in FBS or human serum for 0 h. For potency of Qu mutants toward GALR2 and GALR3, the SRE-luc reporter vector and plasmid containing human GALR2 or GALR3 were transfected into HEK293 cells that stably expressed Gqi protein. Cells were then treated with increasing concentrations of mutant peptides, and the receptor activities were determined using the SRE-luc reporter system.
(§3) To evaluate the stability of SPX and its analogs in FBS or human serum, peptides were incubated at an initial concentration of 1 μM in 100% serum at 37 °C for 0, 3, 6, 12, 24, 48, and 72 hours. Residual peptide activity was then assessed by measuring IP3 in HEK293 cells expressing GALR2. For the IP3 assay, cells were seeded in 12-well plates at a density of 2.5 × 10^5 cells per well, and then the next day, cells were transiently transfected with 1 μg/well of plasmid containing GALR2 using the Lipofectamine 2000 (Invitrogen) transfection reagent. The day following transfection, cells were incubated in M199 media containing 1% FBS, 1% L-glutamine, 1% penicillin/streptomycin, and 1 μCi/well of myo-^3H inositol for 20 h. After a 30-min incubation in buffer A (140 mM NaCl, 20 mM Hepes, 4 mM KCl, 8 mM D-glucose, 1 mM MgCl2, 1 mM CaCl2, 1 mg/ml free fatty acid bovine serum albumin (BSA), and 10 mM LiCl at pH 7.2), cells were treated with the agonist for 40 min at 37 °C. Media was removed, and the reactions were terminated by addition of 1 ml of 10 mM cold formic acid to each well. The plates were stored at 4 °C for 30 min, and the extracts were then transferred into 6-ml plastic tubes containing 500 μl AG1–8X anion exchange columns (BIO-RAD). The tubes were gently mixed with a vortexer, and the supernatants were removed by aspiration. Two washes with 1 ml of distilled water were performed followed by two additional washes with 60 mM ammonium formate/5mM sodium tetraborate. Tritiated inositol was separated from the column by elution with 1 ml of 1 M ammonium formate/0.1 M formic acid, and 800 μl from the elution were taken from each tube and transferred into 6-ml scintillation vials. Then, 2 ml of scintillation cocktail solution (Ultima Gold^TM, Perkin Elmer, Waltham MA, USA) was added to each sample. The radioactivity of [^3H]-myo-inositol samples was measured using a TRI carb 3100TR liquid scintillation analyzer (Packard).

[3] = target: T2, human GALR3 (Homo sapiens, UniProt O60755); assay: SRE-luc reporter assay, GALR3;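 further: luciferase activity read in cell lysates across rising peptide concentrations, EC50 being the agonist concentration giving half-maximal stimulation from a sigmoidal nonlinear fit, Gαqi routing Gi-coupled receptor signaling through Gq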; format: cell-based; settings: HEK293-Gqi cells transfected with SRE-luc and human GALR3; 6 h ligand treatment; mean ± S.E. of at least three independent experiments; NM = not measurable; read-out: GALR3 EC50
T2 construct: host or cells: HEK293 cells stably expressing Gαqi
T2 sequence (O60755 1-368): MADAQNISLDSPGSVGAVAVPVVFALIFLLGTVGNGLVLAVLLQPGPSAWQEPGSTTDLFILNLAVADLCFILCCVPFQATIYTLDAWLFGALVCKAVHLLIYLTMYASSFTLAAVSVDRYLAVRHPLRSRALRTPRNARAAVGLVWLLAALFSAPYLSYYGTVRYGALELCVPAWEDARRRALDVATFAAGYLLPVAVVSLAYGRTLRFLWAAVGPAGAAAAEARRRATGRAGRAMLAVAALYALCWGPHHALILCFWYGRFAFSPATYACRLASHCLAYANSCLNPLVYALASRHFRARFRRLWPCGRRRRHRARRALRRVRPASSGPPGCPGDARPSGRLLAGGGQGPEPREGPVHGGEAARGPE
Procedure: as §4, §5, §6, §7

[4] = Peptide stability in human serum by residual IP3 production; format: in vitro ADME; settings: peptide 1 μM in 100% human serum, 37 °C, 0, 3, 6, 12, 24, 48, 72 h; residual activity read as IP3 production ([3H]-inositol) in HEK293 cells expressing GALR2; mean ± S.E., at least three independent experiments
Procedure: as §1, §2, §3

EC50 [1] [nM] | Half-life activity (h) in FBS [2] | EC50 [3] [nM] | Half-life activity (h) in Human Serum [4] | Initial activity abolished after incubation in FBS ([2]; 12-h incubation in 100% FBS, 37 °C, peptide 1 μM, IP3 production in GALR2-expressing cells) [%] | SMILES
58.9 ± 11 | 8.7 ± 0.6 ^a h | 81.3 ± 16.7 |  |  | CSCC[C@H](NC(=O)[C@H](C)NC(=O)[C@H](CCC(N)=O)NC(=O)[C@@H]1CCCN1C(=O)[C@@H](NC(=O)[C@H](Cc1c[nH]c2ccccc12)NC(=O)[C@H](CC(N)=O)NC(C)=O)[C@@H](C)O)C(=O)N[C@@H](CC(C)C)C(=O)N[C@@H](Cc1ccc(O)cc1)C(=O)N[C@@H](CC(C)C)C(=O)N[C@@H](CCCCN)C(=O)NCC(=O)N[C@@H](C)C(=O)N[C@@H](CCC(N)=O)C(N)=O [Ac-N1]
45.7 ± 5.9 | 4.1 ± 0.5 h | 112 ± 14.5 |  | 80 | CSCC[C@H](NC(=O)[C@H](C)NC(=O)[C@H](CCC(N)=O)NC(=O)[C@@H]1CCCN1C(=O)[C@@H](NC(=O)[C@H](Cc1c[nH]c2ccccc12)NC(=O)[C@@H](N)CC(N)=O)[C@@H](C)O)C(=O)N[C@@H](CC(C)C)C(=O)N[C@@H](Cc1ccc(O)cc1)C(=O)N[C@@H](CC(C)C)C(=O)N[C@@H](CCCCN)C(=O)NCC(=O)N[C@@H](C)C(=O)N[C@@H](CCC(N)=O)C(N)=O [WT, spexin, reference compound]
21.4 ± 5.54 | 10.3 ± 0.3 ^a h | 38.9 ± 8 |  |  | CSCC[C@H](NC(=O)[C@H](C)NC(=O)[C@H](CCC(N)=O)NC(=O)[C@@H]1CCCN1C(=O)[C@@H](NC(=O)[C@H](Cc1c[nH]c2ccccc12)NC(=O)[C@H](N)CC(N)=O)[C@@H](C)O)C(=O)N[C@@H](CC(C)C)C(=O)N[C@@H](Cc1ccc(O)cc1)C(=O)N[C@@H](CC(C)C)C(=O)N[C@@H](CCCCN)C(=O)NCC(=O)N[C@@H](C)C(=O)N[C@@H](CCC(N)=O)C(N)=O [dN1]
77.6 ± 16 | 5.6 ± 0.2 ^a h | 324 ± 66.6 |  |  | CSCC[C@H](NC(=O)[C@H](C)NC(=O)[C@H](CCC(N)=O)NC(=O)[C@@H]1CCCN1C(=O)[C@@H](NC(=O)[C@H](Cc1c[nH]c2ccccc12)NC(=O)[C@@H](N)CC(N)=O)[C@@H](C)O)C(=O)N[C@@H](CC(C)C)C(=O)N[C@@H](Cc1ccc(O)cc1)C(=O)N[C@@H](CC(C)C)C(=O)N[C@@H](CCCCN)C(=O)NCC(=O)N[C@@H](C)C(=O)N[C@H](CCC(N)=O)C(N)=O [dQa14]
100 ± 18.7 | 4.5 ± 0.6 h | 138 ± 23.2 |  |  | CSCC[C@H](NC(=O)[C@H](C)NC(=O)[C@H](CCC(N)=O)NC(=O)[C@@H]1CCCN1C(=O)[C@@H](NC(=O)[C@@H](Cc1c[nH]c2ccccc12)NC(=O)[C@@H](N)CC(N)=O)[C@@H](C)O)C(=O)N[C@@H](CC(C)C)C(=O)N[C@@H](Cc1ccc(O)cc1)C(=O)N[C@@H](CC(C)C)C(=O)N[C@@H](CCCCN)C(=O)NCC(=O)N[C@@H](C)C(=O)N[C@@H](CCC(N)=O)C(N)=O [dW2]

Further lines, the compound ahead of its results:

SMILES | EC50 [1] [nM] | Half-life activity (h) in FBS [2] | EC50 [3] [nM] | Half-life activity (h) in Human Serum [4] | Initial activity abolished after incubation in FBS ([2]; 12-h incubation in 100% FBS, 37 °C, peptide 1 μM, IP3 production in GALR2-expressing cells) [%]
CC(C)C[C@H](NC(=O)[C@H](C)NC(=O)[C@H](C)NC(=O)[C@H](CC(N)=O)NC(=O)[C@@H](C)NC(=O)[C@@H](NC(=O)[C@H](Cc1c[nH]c2ccccc12)NC(=O)[C@H](CC(N)=O)NC(=O)OCC1c2ccccc2-c2ccccc21)[C@@H](C)O)C(=O)N[C@@H](Cc1ccc(O)cc1)C(=O)N[C@@H](CC(C)C)C(=O)N[C@@H](Cc1ccccc1)C(=O)NCC(=O)N1CCC[C@H]1C(=O)N[C@H](CCC(N)=O)C(N)=O [Fmoc-Qu-dA4-dQ14] (Fmoc-NWT[dA]NAALYLFGP[dQ]-NH2) |  | 11.8 ± 0.2 ^a h |  | 8.8 ± 0.2 ^a h | 
CC(C)C[C@H](NC(=O)[C@H](C)NC(=O)[C@H](C)NC(=O)[C@H](CC(N)=O)NC(=O)[C@@H]1CCCN1C(=O)[C@@H](NC(=O)[C@H](Cc1c[nH]c2ccccc12)NC(=O)[C@H](CC(N)=O)NC(=O)OCC1c2ccccc2-c2ccccc21)[C@@H](C)O)C(=O)N[C@@H](Cc1ccc(O)cc1)C(=O)N[C@@H](CC(C)C)C(=O)N[C@@H](Cc1ccccc1)C(=O)NCC(=O)N1CCC[C@H]1C(=O)N[C@H](CCC(N)=O)C(N)=O [Fmoc-Qu-dQ14] (Fmoc-NWTPNAALYLFGP[dQ]-NH2) |  | 8.4 ± 0.3 ^a h |  | 6.3 ± 0.1 ^a h | 
CC(C)C[C@H](NC(=O)[C@H](C)NC(=O)[C@H](C)NC(=O)[C@H](CC(N)=O)NC(=O)[C@@H]1CCCN1C(=O)[C@@H](NC(=O)[C@H](Cc1c[nH]c2ccccc12)NC(=O)[C@H](CC(N)=O)NC(=O)OCC1c2ccccc2-c2ccccc21)[C@@H](C)O)C(=O)N[C@@H](Cc1ccc(O)cc1)C(=O)N[C@@H](CC(C)C)C(=O)N[C@@H](Cc1ccccc1)C(=O)NCC(=O)N1CCC[C@H]1C(=O)N[C@@H](CCC(N)=O)C(N)=O [Fmoc-Qu] (Fmoc-NWTPNAALYLFGPQ-NH2) |  | 6.1 ± 0.2 ^a h |  | 4.9 ± 0.1 ^a h | 
CSCC[C@H](NC(=O)[C@H](C)NC(=O)[C@H](CCC(N)=O)NC(=O)[C@@H]1CCCN1C(=O)[C@@H](NC(=O)[C@H](Cc1c[nH]c2ccccc12)NC(=O)[C@H](CC(N)=O)NC(=O)OCC1c2ccccc2-c2ccccc21)[C@@H](C)O)C(=O)N[C@@H](CC(C)C)C(=O)N[C@@H](Cc1ccc(O)cc1)C(=O)N[C@@H](CC(C)C)C(=O)N[C@@H](CCCCN)C(=O)NCC(=O)N[C@@H](C)C(=O)N[C@@H](CCC(N)=O)C(N)=O [Fmoc] | 77.6 ± 16 | 14.2 ± 0.2 ^a h | 126 ± 25.9 |  | 
CSCC[C@H](NC(=O)[C@H](C)NC(=O)[C@H](CCC(N)=O)NC(=O)[C@@H](C)NC(=O)[C@@H](NC(=O)[C@H](Cc1c[nH]c2ccccc12)NC(=O)[C@@H](N)CC(N)=O)[C@@H](C)O)C(=O)N[C@@H](CC(C)C)C(=O)N[C@@H](Cc1ccc(O)cc1)C(=O)N[C@@H](CC(C)C)C(=O)N[C@@H](CCCCN)C(=O)NCC(=O)N[C@@H](C)C(=O)N[C@@H](CCC(N)=O)C(N)=O [dA4] (H-NWT[dA]QAMLYLKGAQ-NH2) | 97.7 ± 18.3 | 8.7 ± 0.4 ^a h | 112 ± 23.1 |  | 
